# Results taken from ChEMBL document CHEMBL1201862, “PubChem BioAssay data set” (2004).
# Where “and” joins values, the source holds several entries; their conditions need not be identical. Equal entries are not always repeated. Calls of active or inactive are those of the source.
# Assays:
# Cytochrome P450 1A2 = target: T1, Cytochrome P450 1A2 (Homo sapiens, UniProt P05177);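 further: PubChem cytochrome P450 panel assay, CYP1A2 panel member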
# T1 sequence (P05177 whole entry): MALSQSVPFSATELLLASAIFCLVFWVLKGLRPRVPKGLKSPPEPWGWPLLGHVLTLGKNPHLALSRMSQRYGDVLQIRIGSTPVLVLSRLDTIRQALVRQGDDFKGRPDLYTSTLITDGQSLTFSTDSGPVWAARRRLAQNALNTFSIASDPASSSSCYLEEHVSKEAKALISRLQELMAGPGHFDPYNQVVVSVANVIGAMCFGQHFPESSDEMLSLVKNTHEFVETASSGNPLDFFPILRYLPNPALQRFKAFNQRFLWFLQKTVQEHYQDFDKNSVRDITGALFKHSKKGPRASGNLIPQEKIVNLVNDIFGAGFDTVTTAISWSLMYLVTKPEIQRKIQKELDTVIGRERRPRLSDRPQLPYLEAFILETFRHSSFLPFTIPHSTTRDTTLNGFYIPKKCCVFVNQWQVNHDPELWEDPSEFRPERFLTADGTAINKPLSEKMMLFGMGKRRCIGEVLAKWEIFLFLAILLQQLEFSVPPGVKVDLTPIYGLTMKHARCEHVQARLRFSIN
# [1] = Luminescence Cell-Based Dose Confirmation HTS to Identify Activators of 5'UTR Stem-Loop Driven Alpha-Synuclein mRNA Translation in H4 Neuroglioblastoma Cells. [Related pubchem assays: 1829 (Project Summary), 1814 (Primary HTS)]; type: functional
# [2] = Luminescence Cell-Based Dose Response HTS to Identify Activators of Luciferase Translation or Activity in H4 […] Cells. [Related pubchem assays: 1829 (Project Summary), 1814 (Primary HTS)]; type: functional
# H4 = experiment: Luminescence Cell-Based Dose Response HTS to Identify Activators of 5'UTR Stem-Loop Driven Prion Protein mRNA Translation in H4 Neuroglioblastoma Cells. [Related pubchem assays: 1829 (Project Summary), 1814 (Primary HTS)]; type: functional; conditions: Homo sapiens
# Cytochrome P450 3A4 = Cytochrome P450 3A4 (Homo sapiens, UniProt P08684);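 further: CYP3A4 tested as one member of a cytochrome P450 panel screen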
# Cytochrome P450 3A4, sequence (P08684 whole entry): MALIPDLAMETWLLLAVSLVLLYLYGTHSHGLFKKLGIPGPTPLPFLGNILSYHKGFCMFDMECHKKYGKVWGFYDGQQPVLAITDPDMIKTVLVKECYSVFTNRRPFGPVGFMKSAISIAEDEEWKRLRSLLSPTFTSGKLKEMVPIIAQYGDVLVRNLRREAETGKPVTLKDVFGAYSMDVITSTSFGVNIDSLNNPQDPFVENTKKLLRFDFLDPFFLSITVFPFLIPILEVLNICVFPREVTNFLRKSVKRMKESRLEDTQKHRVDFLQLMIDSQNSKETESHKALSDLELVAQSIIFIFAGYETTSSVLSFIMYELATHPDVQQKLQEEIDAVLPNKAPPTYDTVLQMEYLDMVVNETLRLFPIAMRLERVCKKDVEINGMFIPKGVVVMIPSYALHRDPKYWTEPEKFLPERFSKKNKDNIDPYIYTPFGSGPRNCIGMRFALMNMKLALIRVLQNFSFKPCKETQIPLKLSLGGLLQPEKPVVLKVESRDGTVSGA
# [3] = system: Streptococcus sp. 'group A'; experiment: growth inhibition of control SK(-) GAS strain, dose response, counter-screen for streptokinase expression inhibitor project, luminescence, kanamycin, BacTiterGlo, confirmation (AID 1900); type: functional, organism-based
# Streptokinase A = target: T2, Streptokinase A (Streptococcus pyogenes serotype M1, UniProt P10520); experiment: S. pyogenes streptokinase expression inhibitors, potency, dose response, plasminogen activation absorbance, OD405 (AID 1914); type: functional, Streptococcus pyogenes M1 GAS;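 further: secreted streptokinase activity via plasminogen activation per viability signal from cell pellet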
# T2 sequence (P10520 whole entry): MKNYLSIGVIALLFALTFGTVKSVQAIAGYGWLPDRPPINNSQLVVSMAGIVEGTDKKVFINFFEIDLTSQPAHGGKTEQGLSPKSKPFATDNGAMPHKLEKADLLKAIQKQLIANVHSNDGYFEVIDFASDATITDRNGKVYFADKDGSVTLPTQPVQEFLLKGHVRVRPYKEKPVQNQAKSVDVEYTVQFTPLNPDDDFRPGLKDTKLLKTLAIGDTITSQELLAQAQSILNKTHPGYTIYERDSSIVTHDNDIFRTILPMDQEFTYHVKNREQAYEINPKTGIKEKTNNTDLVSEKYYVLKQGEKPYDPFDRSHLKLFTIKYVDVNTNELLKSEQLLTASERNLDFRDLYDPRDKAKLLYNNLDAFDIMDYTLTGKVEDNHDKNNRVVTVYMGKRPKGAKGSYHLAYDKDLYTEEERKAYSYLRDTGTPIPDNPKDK
# Streptococcus = experiment: Group A Streptococcus viability loss, dose response, counter-screen for streptokinase expression inhibitor project, luminescence, BacTiterGlo (AID 1915); type: functional, organism-based;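 further: potency for reduction of bacterial viability or growth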
# [4] = target: T3, Corticotropin-releasing factor receptor 2/Corticotropin-releasing factor-binding protein (Homo sapiens, UniProt P24387+Q13324); experiment: Dose Response confirmation of uHTS hits for small molecule antagonists of the CRF-binding protein and CRF-R2 receptor complex.; type: functional; conditions: read-out: IC50_Mean
# T3 sequence (Q13324 whole entry): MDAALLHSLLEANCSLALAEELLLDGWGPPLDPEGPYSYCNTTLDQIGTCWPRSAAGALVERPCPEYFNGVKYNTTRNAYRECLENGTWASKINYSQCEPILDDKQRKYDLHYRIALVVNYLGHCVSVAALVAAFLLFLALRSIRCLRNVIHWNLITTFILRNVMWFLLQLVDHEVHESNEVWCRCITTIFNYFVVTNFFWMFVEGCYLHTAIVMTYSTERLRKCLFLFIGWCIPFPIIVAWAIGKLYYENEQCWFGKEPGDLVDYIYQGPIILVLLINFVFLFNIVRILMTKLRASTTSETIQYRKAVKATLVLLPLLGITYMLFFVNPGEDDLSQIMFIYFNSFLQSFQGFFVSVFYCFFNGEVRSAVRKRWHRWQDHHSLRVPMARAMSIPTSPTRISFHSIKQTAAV
# T3 sequence (P24387 whole entry): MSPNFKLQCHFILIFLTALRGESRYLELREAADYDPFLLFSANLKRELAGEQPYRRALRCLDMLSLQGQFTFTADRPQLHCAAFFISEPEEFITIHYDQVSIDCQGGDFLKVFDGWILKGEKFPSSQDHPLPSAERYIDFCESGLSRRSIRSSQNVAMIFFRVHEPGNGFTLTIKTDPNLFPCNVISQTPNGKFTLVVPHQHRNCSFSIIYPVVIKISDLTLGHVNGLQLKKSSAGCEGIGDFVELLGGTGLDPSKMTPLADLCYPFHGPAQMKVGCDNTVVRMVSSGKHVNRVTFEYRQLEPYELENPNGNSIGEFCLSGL
# [5] = target: T3, Corticotropin-releasing factor receptor 2/Corticotropin-releasing factor-binding protein; experiment: activators of CRF receptor 2 with binding protein – uHTS hits, confirmation (AID 602473); type: functional; conditions: read-out: EC50_Mean
# Cytochrome P450 2D6 = Cytochrome P450 2D6 (Homo sapiens, UniProt P10635);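 further: CYP2D6 member of a cytochrome P450 panel assay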
# Cytochrome P450 2D6, sequence (P10635 whole entry): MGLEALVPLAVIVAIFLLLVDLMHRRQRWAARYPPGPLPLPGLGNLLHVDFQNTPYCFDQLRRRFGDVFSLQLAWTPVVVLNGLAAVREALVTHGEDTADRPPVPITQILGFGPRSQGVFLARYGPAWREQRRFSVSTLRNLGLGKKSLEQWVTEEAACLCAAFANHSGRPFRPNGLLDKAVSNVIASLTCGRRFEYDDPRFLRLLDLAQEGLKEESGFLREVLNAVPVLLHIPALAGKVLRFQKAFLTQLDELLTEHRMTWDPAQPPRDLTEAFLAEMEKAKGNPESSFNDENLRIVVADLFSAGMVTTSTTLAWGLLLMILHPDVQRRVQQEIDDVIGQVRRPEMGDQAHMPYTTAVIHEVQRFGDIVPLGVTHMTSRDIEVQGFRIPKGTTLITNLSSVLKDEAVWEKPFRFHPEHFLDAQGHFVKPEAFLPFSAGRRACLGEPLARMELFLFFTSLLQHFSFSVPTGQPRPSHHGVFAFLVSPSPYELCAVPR
# Cytochrome P450 2C19 = Cytochrome P450 2C19 (Homo sapiens, UniProt P33261); experiment: Cytochrome panel assay with activity outcomes. Panel member name: p450-cyp2c19 Compounds with AC50 equal or less than 10 uM are considered active; type: functional; conditions: read-out: AC50
# Cytochrome P450 2C19, sequence (P33261 whole entry): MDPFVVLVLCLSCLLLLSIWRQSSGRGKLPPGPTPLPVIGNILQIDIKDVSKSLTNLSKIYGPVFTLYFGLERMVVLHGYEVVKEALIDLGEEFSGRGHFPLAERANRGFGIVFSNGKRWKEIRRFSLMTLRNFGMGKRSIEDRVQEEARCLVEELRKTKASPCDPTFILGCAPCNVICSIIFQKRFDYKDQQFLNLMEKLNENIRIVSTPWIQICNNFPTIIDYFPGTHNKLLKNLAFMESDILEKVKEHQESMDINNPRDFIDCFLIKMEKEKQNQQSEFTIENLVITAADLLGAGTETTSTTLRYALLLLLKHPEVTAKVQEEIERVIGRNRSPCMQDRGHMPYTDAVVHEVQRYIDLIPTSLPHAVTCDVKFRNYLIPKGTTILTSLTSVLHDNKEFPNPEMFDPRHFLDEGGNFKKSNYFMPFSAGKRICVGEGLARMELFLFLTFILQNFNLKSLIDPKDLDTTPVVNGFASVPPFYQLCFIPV
# Cytochrome P450 2C9 = Cytochrome P450 2C9 (Homo sapiens, UniProt P11712)
# Cytochrome P450 2C9, sequence (P11712 whole entry): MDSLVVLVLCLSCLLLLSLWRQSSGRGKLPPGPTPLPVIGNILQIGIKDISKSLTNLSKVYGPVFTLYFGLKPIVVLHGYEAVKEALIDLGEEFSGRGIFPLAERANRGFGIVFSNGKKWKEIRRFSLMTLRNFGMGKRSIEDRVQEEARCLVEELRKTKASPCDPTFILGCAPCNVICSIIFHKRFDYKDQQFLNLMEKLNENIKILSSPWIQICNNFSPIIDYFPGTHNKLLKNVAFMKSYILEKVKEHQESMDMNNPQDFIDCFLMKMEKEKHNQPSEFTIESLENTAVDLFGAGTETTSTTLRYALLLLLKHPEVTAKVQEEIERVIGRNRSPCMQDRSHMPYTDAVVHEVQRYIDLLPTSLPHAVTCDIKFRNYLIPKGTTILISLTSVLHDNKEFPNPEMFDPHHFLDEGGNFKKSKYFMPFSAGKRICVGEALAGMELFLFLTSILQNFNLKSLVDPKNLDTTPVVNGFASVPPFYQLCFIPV
structure (smiles),measurement,setting,value
O=C(Nc1ccccc1)N1CC2(CCN(C(=O)c3cnccn3)CC2)C1,AC50,Cytochrome P450 1A2,20 µM (inconclusive)
Cc1ccc(C2NC(=O)c3ccccc3N2)s1 (stereo not drawn),EC50,[1],> 120 µM (not active)
same,EC50,[2],10.5 µM (active)
same,EC50,H4,11.8 µM (active)
CC[C@@](O)(C(=O)O)c1cc2n(c(=O)c1CO)Cc1cc3ccccc3nc1-2,AC50,Cytochrome P450 1A2,3.16 µM (inconclusive)
same,AC50,Cytochrome P450 3A4,3.16 µM (inconclusive)
CCC1SC(NC(=O)NC2CCCCC2)=NC1=O (stereo not drawn),EC50,[1],15.8 µM (active)
same,EC50,[2],27.5 µM (active)
same,EC50,H4,0.115 µM (active)
COc1ccc(OC)c(NC(=O)NC2CCCc3ccccc32)c1 (stereo not drawn),EC50,[3]; Streptococcus sp. 'group A',> 150 µM (not active)
same,EC50,Streptokinase A,> 150 µM (not active)
same,EC50,Streptococcus; Streptococcus,> 150 µM (not active)
CCOC(=O)[C@@H]1[C@H]2COc3ccccc3[C@H]2N2C(=O)N(c3ccc(C(F)(F)F)cc3)C(=O)[C@]12C,EC50,[3]; Streptococcus sp. 'group A',9.78 µM (active)
same,EC50,Streptokinase A,17 µM (inconclusive)
same,EC50,Streptococcus; Streptococcus,> 150 µM (not active)
O=[N+]([O-])c1cccc(-c2nc(-c3ccccn3)no2)c1,IC50,[4],> 47.1 µM (inactive)
same,EC50,[5],> 53 µM (inactive)
O=C(NC1CCCC1)C1CCC(CNS(=O)(=O)c2ccc(F)cc2)CC1 (stereo not drawn),IC50,[4],> 47.1 µM (inactive)
same,EC50,[5],> 53 µM (inactive)
CCOC(=O)c1sc2ncnc(NCC(c3cccs3)N(C)C)c2c1C (stereo not drawn),EC50,[3]; Streptococcus sp. 'group A',7.15 µM (active)
same,EC50,Streptokinase A,> 150 µM (not active)
same,EC50,Streptococcus; Streptococcus,50.8 µM (active)
CCCCC(C(=O)O)C(C)CC(=O)Nc1nncs1 (stereo not drawn),IC50,[4],> 47.1 µM (inactive)
same,EC50,[5],> 53 µM (inactive)
CNP(=O)(Oc1ccccc1)OC12CC3CC(CC(C3)C1)C2 (stereo not drawn),IC50,[4],> 47.1 µM (inactive)
same,EC50,[5],> 53 µM (inactive)
O=C(Nc1cccc(-c2ccc(N3CCOCC3)nn2)c1)c1ccccc1Cl,EC50,[3]; Streptococcus sp. 'group A',> 150 µM (not active)
same,EC50,Streptokinase A,> 150 µM (not active)
same,EC50,Streptococcus; Streptococcus,> 150 µM (not active)
O=C(O)c1ccc(/C=N/Nc2cccc(C(F)(F)F)c2)cc1,IC50,[4],43.7 µM (active)
same,EC50,[5],> 53 µM (inactive)
CCS(=O)(=O)c1ccc(C(=O)Nc2ccccc2)c(Cl)c1Cl,AC50,Cytochrome P450 2D6,31.6 µM (inconclusive)
same,AC50,Cytochrome P450 1A2,14.1 µM (inconclusive)
CCn1c(COc2ccccc2)nnc1SCC(=O)c1cccc([N+](=O)[O-])c1,AC50,Cytochrome P450 2C19,39.8 µM (inconclusive)
same,AC50,Cytochrome P450 1A2,28.2 µM (inconclusive)
O=c1c(CCc2ccccc2)nc2cnc(N3CCNCC3)nc2n1Cc1ccc(F)cc1,AC50,Cytochrome P450 2D6,25.1 µM (inconclusive)
same,AC50,Cytochrome P450 1A2,10 µM (inconclusive)
COc1ccccc1-c1nnc(NC(=O)c2ccc(S(=O)(=O)N(C)CC3CCCO3)cc2)o1 (stereo not drawn),EC50,[3]; Streptococcus sp. 'group A',19.5 µM (active)
same,EC50,Streptokinase A,> 150 µM (not active)
same,EC50,Streptococcus; Streptococcus,78.9 µM (active)
CC1(C)C(=O)C(c2ccccc2)=C2CN3C(=O)N(CCc4ccccc4)C(=O)C3(Cc3ccc(F)cc3)C=C21 (stereo not drawn),AC50,Cytochrome P450 1A2,15.8 µM (inconclusive)
same,AC50,Cytochrome P450 2C9,10 µM (inconclusive)
CCOc1ccccc1/C=C(/NC(=O)c1ccccc1)C(=O)NC(C)c1ccccc1 (stereo not drawn),IC50,[4],> 47.1 µM (inactive)
same,EC50,[5],> 53 µM (inactive)
COc1ccc(NC(=S)Nc2ccccc2)cc1,AC50,Cytochrome P450 1A2,1.26 µM (inconclusive)
N#Cc1ccc(CN2CC[C@@]3(CCCN(S(=O)(=O)c4ccccc4)C3)C2)cc1,AC50,Cytochrome P450 1A2,15.8 µM (inconclusive)
Cc1cccc(NC2=NN=C(c3c(C)[nH]c4ccccc34)CS2)c1,EC50,[3]; Streptococcus sp. 'group A',3.91 µM (active)
same,EC50,Streptokinase A,> 150 µM (not active)
same,EC50,Streptococcus; Streptococcus,6.58 µM (active)
COc1ccc(Nc2nc(NN)nc(Nc3ccc(OC)cc3)n2)cc1,EC50,[3]; Streptococcus sp. 'group A',11.3 µM (active)
same,EC50,Streptokinase A,> 150 µM (not active)
same,EC50,Streptococcus; Streptococcus,> 150 µM (not active)
Nc1nc(N)c(/N=N\c2ccc([As](=O)(O)O)c(O)c2)c(N)n1,AC50,Cytochrome P450 1A2,6.31 µM (inconclusive)
CCOc1cc(NC(=O)C2CCCCC2)c(OCC)cc1NC(=O)c1ccco1,AC50,Cytochrome P450 1A2,2 µM (inconclusive)
same,AC50,Cytochrome P450 3A4,1.12 µM (inconclusive)
same,AC50,Cytochrome P450 2C9,11.2 µM (inconclusive)
O=C(/C=C\c1ccc(O)c(O)c1)O[C@@H](Cc1ccc(O)c(O)c1)C(=O)O,AC50,Cytochrome P450 1A2,25.1 µM (inconclusive)
NC1(C(=O)O)CC(C(=O)O)C1 (stereo not drawn),AC50,Cytochrome P450 1A2,39.8 µM (inconclusive)
Cc1onc(O)c1CC[C@H](N)C(=O)O,AC50,Cytochrome P450 1A2,39.8 µM (inconclusive)
Cc1ccc2nc(SCC(=O)c3ccc(Cl)s3)[nH]c2c1,EC50,Streptokinase A,> 150 µM (not active)
N#CCSc1nc2ccc(N3CCCCC3)cc2c(=O)n1Cc1ccccc1,AC50,Cytochrome P450 2D6,5.62 µM (inconclusive)
same,AC50,Cytochrome P450 2C9,4.47 µM (inconclusive)
CCCC(=O)Nc1ccc(-c2nc3cc(C)c(C)cc3o2)c(O)c1,IC50,[4],> 47.1 µM (inactive)
same,EC50,[5],> 53 µM (inactive)
O=c1c2ccccc2nc(-c2ccco2)n1Cc1ccccc1,EC50,[1],34.1 µM (active)
same,EC50,[2],8.08 µM (active)
CCCCC(=O)Nc1ccc(C)c(O)c1,AC50,Cytochrome P450 2D6,17.8 µM (inconclusive)
same,AC50,Cytochrome P450 2C9,14.1 µM (inconclusive)
Cc1ccc(C(O)(C(=O)NNc2ccc3ccccc3n2)c2ccc(C)cc2)cc1,EC50,[3],2.55 µM (active)
same,EC50,[3]; Streptococcus sp. 'group A',3.72 µM (active)
same,EC50,Streptokinase A,> 150 µM (not active) and 8.85 µM (active)
same,EC50,Streptococcus,10.9 µM (active)
same,EC50,Streptococcus; Streptococcus,12.1 µM (active)
O=C(Nc1ccc(S(=O)(=O)N2CCOCC2)cc1)c1ccc(Cl)c([N+](=O)[O-])c1,IC50,[4],> 47.1 µM (inactive)
same,EC50,[5],> 53 µM (inactive)
O=C(Nc1ccn(CCCNCc2ccc3c(c2)OCO3)c(=O)n1)OCc1ccccc1,IC50,[4],> 47.1 µM (inactive)
same,EC50,[5],> 53 µM (inactive)
CCOC(=O)c1c[nH]nc1N=C(S)Nc1ccc(Cl)cc1,IC50,[4],> 47.1 µM (inactive)
same,EC50,[5],> 53 µM (inactive)
Cc1cnn(CCC(=O)NN=C(S)Nc2cccc(Cl)c2)c1,AC50,Cytochrome P450 2C19,39.8 µM (inconclusive)
same,AC50,Cytochrome P450 1A2,15.8 µM (inconclusive)
same,AC50,Cytochrome P450 2C9,15.8 µM (inconclusive)
COc1cc(NC(=O)CSc2cc(C)c3cc(C)cc(C)c3n2)c(C(=O)O)cc1OC,IC50,[4],> 47.1 µM (inactive)
same,EC50,[5],> 53 µM (inactive)
N#CCCn1c(=O)c(-c2cccc(C#N)c2)nc2cnc(N3CCOCC3)nc21,AC50,Cytochrome P450 1A2,15.8 µM (inconclusive)
same,AC50,Cytochrome P450 3A4,15.8 µM (inconclusive)
O=C(NCCN1CCN(C(=O)NC2CCCCC2)CC1)NC1CCCCC1,IC50,[4],> 47.1 µM (inactive)
same,EC50,[5],> 53 µM (inactive)
